Assay results reported in PMC8330735 (Journal of Enzyme Inhibition and Medicinal Chemistry, 2021).
Read-outs that look alike come from different tables or passages of the source.

Legend:
[1] = tested on: ROS production in LPS-activated RAW 264.7 macrophages; experiment: ROS production in LPS-activated RAW 264.7 macrophages (DCFH-DA); format: cell-based; conditions: Mus musculus, RAW264.7; LPS 1 µg/mL activated RAW 264.7
Description: HCA7 colorectal cancer cell line was obtained from Sigma. […] Louis, MO) containing 10% heat-inactivated foetal bovine serum (HI-FBS) (Gibco, USA), 100 μg/mL streptomycin (Invitrogen, USA), and […] penicillin (Invitrogen, USA)[40]. HCA7 and RAW 264.7 cells were cultured in Dulbecco's minimal essential media (DMEM, Invitrogen) containing 10% HI-FBS, sodium pyruvate (1 mM), penicillin ([…]), and streptomycin (100 mg/m)[41]^,[42]. […] The cells were cultured, incubated with the different test compounds, and activated with LPS (1 µg/mL) as detailed above. […] IC50 values were calculated from the dose–response curves.

[2] = tested on: stomach ulceration in rats; experiment: Gastric acute ulcerogenic activity; conditions: rat, n = 5; for Ulcer Index (UI): UI = UN + US + UP×10^−1
Description: (§3) The rats from the previous experiment were fasted for 12 h., followed by the administration of additional doses of the selected compounds or the two references for two consecutive days. Six hrs after the last treatment, the animals were sacrificed, and their stomachs were removed, washed with saline solution (0.9%) and examined for ulceration using a magnifying lens. The ulcer scores were estimated according to the method prescribed by Kulkarni and as detailed in our previous studies[36–38]. The following scores were individually assigned to each lesion: normal coloured stomach, 0; red colouration, 0.5; spot ulcers, 1; haemorrhagic streaks, 1.5; ulcer >3 but <5 mm, 2; and ulcers >5 mm, 3.

[3] = target: T1, ovine COX-1 (Ovis aries, UniProt P05979); experiment: In vitro COX-1 inhibitory assay (colorimetric Cayman kit)
T1 sequence (P05979 25-600): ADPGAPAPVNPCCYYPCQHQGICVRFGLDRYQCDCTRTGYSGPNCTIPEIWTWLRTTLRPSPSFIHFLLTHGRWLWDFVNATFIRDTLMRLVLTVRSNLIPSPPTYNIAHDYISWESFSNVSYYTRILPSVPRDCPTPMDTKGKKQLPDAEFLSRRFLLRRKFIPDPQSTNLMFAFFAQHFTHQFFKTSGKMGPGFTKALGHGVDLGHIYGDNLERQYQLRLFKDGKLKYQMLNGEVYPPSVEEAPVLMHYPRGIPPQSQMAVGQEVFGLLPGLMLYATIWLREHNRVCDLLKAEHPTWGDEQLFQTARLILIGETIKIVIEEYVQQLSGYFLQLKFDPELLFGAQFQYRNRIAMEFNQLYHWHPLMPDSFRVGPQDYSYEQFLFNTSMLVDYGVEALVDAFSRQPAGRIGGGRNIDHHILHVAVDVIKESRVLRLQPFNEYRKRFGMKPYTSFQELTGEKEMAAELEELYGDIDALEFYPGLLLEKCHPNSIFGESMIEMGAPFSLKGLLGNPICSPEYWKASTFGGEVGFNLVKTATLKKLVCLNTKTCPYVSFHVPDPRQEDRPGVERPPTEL
Description: (§4) All the newly synthesised compounds were tested for their ability to inhibit COX-1 and COX-2 enzymes using a screening assay method.

[4] = tested on: NO production in LPS-activated RAW 264.7 macrophages; experiment: NO production in LPS-activated RAW 264.7 macrophages (DAF-FM); format: cell-based; conditions: Mus musculus, RAW264.7; LPS 1 µg/mL activated RAW 264.7
Description: HCA7 colorectal cancer cell line was obtained from Sigma. […] Louis, MO) containing 10% heat-inactivated foetal bovine serum (HI-FBS) (Gibco, USA), 100 μg/mL streptomycin (Invitrogen, USA), and […] penicillin (Invitrogen, USA)[40]. HCA7 and RAW 264.7 cells were cultured in Dulbecco's minimal essential media (DMEM, Invitrogen) containing 10% HI-FBS, sodium pyruvate (1 mM), penicillin ([…]), and streptomycin (100 mg/m)[41]^,[42]. […] Molecular Probes, USA). Briefly, RAW 264.7 cells were cultured in black 96-well plates (200,000 cells/mL, 100 µl/well) for 24 h. […] The fluorescence intensity, which is directly proportional to NO levels, was quantified, as detailed in our previous study. IC50 values were calculated from the dose–response curves.

[5] = tested on: HCT116 cells; experiment: MTS cell viability assay HCT116; format: cell-based; conditions: Homo sapiens, HCT-116, 48 h, cell line scarcely expressing COX-2
Description: (§1) Human colorectal cancer cell lines, HCT116 and HT29, and RAW 264.7 macrophages were obtained from ATCC (Manassas, VA). HCA7 colorectal cancer cell line was obtained from Sigma. HT29 and HCT116 cells were cultured in McCoy's 5 A medium (Sigma Aldrich, St. Louis, MO) containing 10% heat-inactivated foetal bovine serum (HI-FBS) (Gibco, USA), 100 μg/mL streptomycin (Invitrogen, USA), and […] penicillin (Invitrogen, USA)[40]. HCA7 and RAW 264.7 cells were cultured in Dulbecco's minimal essential media (DMEM, Invitrogen) containing 10% HI-FBS, sodium pyruvate (1 mM), penicillin ([…]), and streptomycin (100 mg/m)[41]^,[42].
(§2) Cells were cultured in 96‐well plates for 48 h and then treated with serum-free media containing different concentrations of the tested compounds (12.5, 25, 50, 100 and 150 µM). After 48 h., MTS reagent (Promega) was added as directed by the manufacturer, and then, the absorbance was measured at 495 nm. The absorbance is proportional to the number of viable cells. IC50 was calculated from the dose-response curves as described previously[45] using GraphPad Prism 8 software (GraphPad Software, San Diego, CA).

[6] = tested on: HT29 cells; experiment: MTS cell viability assay HT29; format: cell-based; conditions: Homo sapiens, HT-29, 48 h, cell line moderately expressing COX-2
Description: as §1, §2

[7] = target: T2, human recombinant COX-2 (Homo sapiens, UniProt P35354); experiment: In vitro COX-2 inhibitory assay (colorimetric Cayman kit); conditions: for Selectivity Index (SI): COX-1 IC50/COX-2 IC50
T2 sequence (P35354 18-604): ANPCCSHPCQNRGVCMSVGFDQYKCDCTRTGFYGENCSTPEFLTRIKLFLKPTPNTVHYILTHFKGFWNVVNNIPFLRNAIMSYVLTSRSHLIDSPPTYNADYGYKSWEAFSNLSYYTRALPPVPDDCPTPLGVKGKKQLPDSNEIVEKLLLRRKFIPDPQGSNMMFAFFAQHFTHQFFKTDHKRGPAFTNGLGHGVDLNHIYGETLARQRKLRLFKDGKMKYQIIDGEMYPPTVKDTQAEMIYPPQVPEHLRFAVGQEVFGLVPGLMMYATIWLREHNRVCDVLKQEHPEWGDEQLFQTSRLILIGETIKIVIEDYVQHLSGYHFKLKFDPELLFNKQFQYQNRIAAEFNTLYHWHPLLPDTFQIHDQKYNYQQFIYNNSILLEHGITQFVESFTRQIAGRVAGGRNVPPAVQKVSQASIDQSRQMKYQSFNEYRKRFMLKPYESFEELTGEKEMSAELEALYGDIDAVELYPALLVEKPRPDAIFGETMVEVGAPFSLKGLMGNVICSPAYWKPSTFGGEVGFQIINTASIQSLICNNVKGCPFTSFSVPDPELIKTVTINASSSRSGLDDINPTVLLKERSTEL
Description: as §4

[8] = tested on: carrageenan-induced rat paw oedema; experiment: Carrageenan-induced rat paw oedema test; format: in vivo; conditions: compounds and celecoxib 50 mg/kg, ibuprofen and indomethacin 20 mg/kg; for Mean oedema thickness 1h: 1 h after carrageenan; for Mean oedema thickness 1h / Mean oedema thickness 2h / Mean oedema thickness 3h / Mean oedema thickness 4h / Mean oedema thickness 5h / Mean oedema thickness 24h / Mean oedema thickness 0h: mean ± SEM, n = 5; for Mean oedema thickness 2h: 2 h after carrageenan; for Mean oedema thickness 3h: 3 h after carrageenan; for Mean oedema thickness 4h: 4 h after carrageenan; for Mean oedema thickness 5h: 5 h after carrageenan; for Mean oedema thickness 24h: 24 h after carrageenan; for Mean oedema thickness 0h: before carrageenan (0 h); for Average oedema inhibition%: from area under the curve of all time points
Description: The rats were divided into nine groups (n = 5/group). All tested compounds were suspended in 1% Tween-80. Group 1, controls, were given the vehicle (1% Tween80, 10 ml/kg). […] The rats were given the drugs 1 h before the injection of carrageenan solution (1% in 0.9% NaCl, 0.1 ml) (Sigma Aldrich, USA) in the sub-planter tissue of the right hind paw. The paw thickness (mm) was measured using a calliper before (0 h) and after carrageenan injection at 1, 2, 3, 4, 5 and 24 h. The inhibition of oedema thickness was calculated using the following formula (control– drug/control) × 100.

[9] = tested on: HCA7 cells; experiment: MTS cell viability assay HCA7; format: cell-based; conditions: Homo sapiens, HCA-7, 48 h, cell line highly expressing COX-2
Description: as §1, §2

[10] = tested on: stomach ulceration in rats; conditions: rat, in vivo, 2 days
Description: as §3

[11] = tested on: acetic acid-induced writhing in mice; experiment: Acetic acid induced writhing test; format: in vivo; conditions: 50 mg/kg p.o., 1 h prior acetic acid i.p., within 30 min
Description: The number of writhes, manifested as extension of hind legs, constriction of abdomen, or turning of trunk was recorded within 30 min.

CN1c2ccccc2C(=O)N(NC(=O)Cc2c[nH]c3ccccc23)C1c1ccc(Cl)cc1 (stereo not shown) [4a, N-(2-(4-chlorophenyl)-1-methyl-4-oxo-1,4-dihydroquinazolin-3(2H)-yl)-2-(1H-indol-3-yl)acetamide]
IC50 [1]: 29.7 ± 1.07 µM | Average Ulcer number [2]: 1.6 | Lesion Incidence (%) [2]: 60% | Number of rats with ulcer [2]: 3 | IC50 [3]: 12.68 ± 0.11 µM | IC50 [4]: 31.5 ± 1.08 µM | IC50 [5]: 75.35 ± 0.1 µM | IC50 [6]: 15.42 ± 0.06 µM | IC50 [7]: 0.04 ± 0.08 µM | Selectivity Index (SI) [7]: 317.00 | Mean oedema thickness 1h [8]: 2.67 ± 0.24 mm | Mean oedema thickness 2h [8]: 2.90 ± 0.33 mm | Mean oedema thickness 3h [8]: 2.14 ± 0.25 mm | Mean oedema thickness 4h [8]: 2.04 ± 0.24 mm | Mean oedema thickness 5h [8]: 1.39 ± 0.06 mm | Mean oedema thickness 24h [8]: 0.54 ± 0.21 mm | Mean oedema thickness 0h [8]: 0.00 ± 0.00 mm | Average oedema inhibition% [8]: 33.40% | IC50 [9]: 137.3 ± 0.08 µM

CN1c2ccccc2C(=O)N(NC(=O)Cc2c[nH]c3ccccc23)C1c1ccc([N+](=O)[O-])cc1 (stereo not shown) [4b, 2-(1 h-indol-3-yl)-N-(1-methyl-2-(4-nitrophenyl)-4-oxo-1,4dihydroquinazolin-3(2H)-yl)acetamide]
IC50 [1]: 24.5 ± 2.06 µM | Average Ulcer number [2]: 0.8 | Lesion Incidence (%) [2]: 20% | Number of rats with ulcer [2]: 1 | Ulcer Index (UI) [2]: 3 | IC50 [3]: 6.93 ± 0.15 µM | IC50 [4]: 32.2 ± 1.32 µM | melting point: 239 to 243 °C | IC50 [5]: > 150 µM | IC50 [6]: 66.67 ± 0.07 µM | IC50 [7]: 0.07 µM | Selectivity Index (SI) [7]: 99.00 | Mean oedema thickness 1h [8]: 1.39 ± 0.09 mm | Mean oedema thickness 2h [8]: 1.89 ± 0.25 mm | Mean oedema thickness 3h [8]: 1.70 ± 0.17 mm | Mean oedema thickness 4h [8]: 1.14 ± 0.22 mm | Mean oedema thickness 5h [8]: 1.42 ± 0.28 mm | Mean oedema thickness 24h [8]: 0.16 ± 0.08 mm | Mean oedema thickness 0h [8]: 0.00 ± 0.00 mm | Average oedema inhibition% [8]: 49.47% | IC50 [9]: > 150 µM

Cc1ccc(-c2cc(C(F)(F)F)nn2-c2ccc(S(N)(=O)=O)cc2)cc1 [Celecoxib, reference compound]
Average Ulcer number [10]: 0.2 | Lesion Incidence (%) [10]: 20% | Number of rats with ulcer [10]: 1 | Number of writhes [11]: 29.20 writhes | IC50 [5]: 53.77 ± 0.05 µM | IC50 [6]: 5.82 ± 0.38 µM | Mean oedema thickness 1h [8]: 1.27 ± 0.07 mm | Mean oedema thickness 2h [8]: 1.51 ± 0.07 mm | Mean oedema thickness 3h [8]: 1.49 ± 0.14 mm | Mean oedema thickness 4h [8]: 1.39 ± 0.12 mm | Mean oedema thickness 5h [8]: 1.19 ± 0.08 mm | Mean oedema thickness 24h [8]: 0.53 ± 0.12 mm | Mean oedema thickness 0h [8]: 0.00 ± 0.00 mm | Average oedema inhibition% [8]: 47.60% | IC50 [9]: 51.36 ± 0.04 µM

O=C(CSc1nc2ccccc2c(=O)n1NC(=O)Cc1ccccc1)NNC(=O)c1ccccc1 [14c, N-(2-((2-(2-benzoylhydrazinyl)-2-oxoethyl)thio)-4-oxoquinazolin-3(4H)-yl)-2-phenylacetamide]
IC50 [1]: 16.2 ± 1.3 µM | Average Ulcer number [2]: 0.8 | Lesion Incidence (%) [2]: 40% | Number of rats with ulcer [2]: 2 | Ulcer Index (UI) [2]: 5.3 | IC50 [3]: 15.4 ± 0.17 µM | IC50 [4]: 13 ± 1.36 µM | melting point: 235 to 240 °C | IC50 [5]: > 150 µM | IC50 [6]: > 150 µM | IC50 [7]: 0.04 µM | Selectivity Index (SI) [7]: 359.74 | Mean oedema thickness 1h [8]: 3.02 ± 0.35 mm | Mean oedema thickness 2h [8]: 2.89 ± 0.13 mm | Mean oedema thickness 3h [8]: 2.42 ± 0.18 mm | Mean oedema thickness 4h [8]: 2.37 ± 0.19 mm | Mean oedema thickness 5h [8]: 2.34 ± 0.23 mm | Mean oedema thickness 24h [8]: 0.57 ± 0.09 mm | Mean oedema thickness 0h [8]: 0.00 ± 0.00 mm | Average oedema inhibition% [8]: 31.86% | IC50 [9]: > 150 µM
